In experiment [1] the target is T1, PTPN2 (Homo sapiens (Human), UniProt P17706). The experiment can be described thus: Phosphatase activity assay using DiFMUP as substrate. The experiment is classed as biochemical. The settings on record: 0.15 nM PTPN2, read-out: PTPN2 BChem DIFMUP IC50. The method, then:
The PTPN2 biochemical assay was performed as follows, a 5× stock solution of human PTPN2 (SRP5075, MilliporeSigma, Burlington, MA) and a 1.25× stock solution of DiFMUP (D6567, ThermoFisher Scientific, Waltham, MA), were prepared in 1× reaction buffer consisting of 50 mM HEPES, pH 7.4, 1 mM EDTA, 150 mM NaCl, 0.2 mg/mL BSA, 100 U/mL catalase and 10 mM DTT. […] of the DiFMUP substrate solution, for a final concentration of […] DiFMUP substrate, was added to a Corning 3574 384-well, white, non-binding surface microtiter plate containing […] of serially diluted test compounds prepared in DMSO. The reactions were started with the addition of […] of the enzyme solution, for a final PTPN2 concentration of 0.15 nM, and monitored every 105 seconds for 60 minutes at MEX 360/2EM 460 in a BioTek Synergy HTX plate reader (Agilent Technologies, Santa Clara, CA) at room temperature. The initial linear portions of the progress curves were fit according to a linear equation to yield the slopes and converted to % inhibition based on a value of 100% activity for the no inhibitor treated control. IC50 values of each compound were obtained by fitting the % inhibition-compound concentration curves using Dotmatics software (Dotmatics, Bishops Stortford, Hertfordshire, England).
(§1) For IC50 data, High DDT concentration and/or DiFMUP substrate assays were used; a skilled artisan may use either assay.

For experiment [2], the system named is phosphorylated STAT1 in B16-F10 cells. The experiment can be described thus: Phospho-STAT1 (Tyr701) HTRF assay in B16-F10 cells. The format is cell-based. The settings on record: 100 ng/mL mouse IFN-gamma, 1 hour, read-out: pSTAT1 HTRF B16 EC50. The method, then: B16-F10 cells (ATCC, Manassas, VA, #CRL-6475) were cultured in DMEM growth medium (ThermoFisher Scientific, Waltham, MA, #11995-040) supplemented with 10% heat-inactivated FBS (ThermoFisher Scientific, #16140-071) and 1% pen/strep (ThermoFisher Scientific, #15140-122). The cells were seeded into a white opaque 384-well tissue culture treated microplate (PerkinElmer, Waltham, MA, #6007688) at a density of 10,000 cells/well in 20 uL total volume and incubated overnight at 37 C and 5% CO2. 30 nL of compounds dissolved in DMSO were then transferred from a source plate into target wells with the Echo650 acoustic liquid handler (Beckman Coulter, Indianapolis, IN). Negative control wells received 30 nL of DMSO only (0.15% final concentration). Plates were returned to the incubator for 1 hour and then cells were treated with either 5 uL of growth medium or 5 uL of growth medium containing 500 ng/ml of recombinant mouse IFN-gamma protein (R&D Systems, Minneapolis, MN, #485-MI/CF, 100 ng/mL final concentration) using the Assist automated pipetting platform (INTEGRA Biosciences, Hudson, NH). Plates were incubated at 37 C for 1 hour and assayed for phosphorylated STAT1 protein levels with the phospho-STAT1 (Tyr701) HTRF kit (Cisbio, Bedford, MA, #63ADK026PEH) according to the manufacturer's instructions.

Experiment [3] deals with B16-F10 cells. The experiment can be described thus: Cell proliferation assay (CellTiter-Glo) in B16-F10 cells with IFN-gamma. The settings on record: 10 ng/ml mouse IFN-gamma, read-out: Prolif. 5d B16 GI50. The format is cell-based. (In general: In ATP-based viability assays light output follows the ATP content of the culture.)
Experiment [4] concerns the target T1, PTPN2. Nature of the experiment: PTPN2 biochemical assay, high DTT (PhosphoSens). The settings on record: high DTT concentration assay; read-out: PTPN2 BChem HIGHDTT IC50. The method, then: A PhosphoSens® kinase assay was performed as described by the vendor (AssayQuant Technologies, Marlborough, MA). Briefly, 1000× solutions of compounds were prepared in DMSO via serial dilution of the 10 mM DMSO stocks using 3-fold intervals in a 384-well reagent plate. 50 nL of the compound dilution series was then added to the corresponding wells of a 384-well assay plate. […] Finally, […] of 5×PTPN2 enzyme stock was added to each well of the assay plate for a final enzyme concentration of 150 pM. Reaction progress curves were collected by sampling fluorescence intensity at the excitation wavelength 360 nm (Quex360) and emission wavelength 480 nm (λem480) every 71 seconds for one hour using a Synergy H4 plate reader (BioTek Instruments/Agilent Technologies, Winooski, VT) at room temperature.
as §1

Data on ten compounds can be found in patent publication US20240207238A1, “INHIBITORS OF PROTEIN TYROSINE PHOSPHATASE, COMPOSITIONS, AND METHODS OF USE” (BRISTOL-MYERS SQUIBB COMPANY, priority 2022, published 2024).

Read-outs that look alike come from different tables or passages of the source. A value given as a limit tells only on which side of the number the result lay.

Broadly, the IC50 is the midpoint of a concentration-inhibition curve. The term EC50 denotes the concentration that produces a half-maximal response. In general, GI50 refers to the concentration that inhibits growth by half.

T1 sequence (P17706 whole entry): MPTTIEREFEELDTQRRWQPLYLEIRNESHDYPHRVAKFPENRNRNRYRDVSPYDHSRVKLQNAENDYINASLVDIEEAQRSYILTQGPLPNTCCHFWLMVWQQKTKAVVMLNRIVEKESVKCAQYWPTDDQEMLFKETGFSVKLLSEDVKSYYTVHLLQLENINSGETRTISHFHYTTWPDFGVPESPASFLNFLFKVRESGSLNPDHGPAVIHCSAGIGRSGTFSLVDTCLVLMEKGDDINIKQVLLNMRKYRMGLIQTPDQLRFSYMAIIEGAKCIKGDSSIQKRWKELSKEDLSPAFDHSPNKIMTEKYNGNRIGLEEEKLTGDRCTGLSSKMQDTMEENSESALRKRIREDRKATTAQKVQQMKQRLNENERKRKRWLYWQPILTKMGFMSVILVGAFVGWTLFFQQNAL

Turning to “5-(6-fluoro-4-(((4-methoxy-5-methylpyridin-2-yl)amino)methyl)-1H-indazol-7-yl)-1,2,5-thiadiazolidin-3-one 1,1-dioxide [Example 7]”, the IC50 in experiment [1] is 0.199 µM. For the same compound, the EC50 in experiment [2] was more than 15 µM. Further, the GI50 in experiment [3] is more than 15 µM.

For “5-(4-(((4,6-dimethylpyridin-2-yl)amino)methyl)-6-fluoro-1H-indazol-7-yl)-1,2,5-thiadiazolidin-3-one 1,1-dioxide [Example 6]”, the IC50 in experiment [1] came to 0.083 µM. Further, the EC50 in experiment [2] amounted to 3.69 µM. Also, the GI50 in experiment [3] worked out at 3.26 µM.

Turning to “5-[6-fluoro-4-[[(4-methyl-2-pyridyl)amino]methyl]-1H-indazol-7-yl]-1,1-dioxo-1,2,5-thiadiazolidin-3-one [Example 5]”, the results for the IC50 in experiment [4] and in experiment [1] were 0.005 µM and 0.008 µM, respectively. Besides, in experiment [2], the EC50 is 0.44 µM. Moreover, the GI50 in experiment [3] was 0.166 µM.

“5-(6-fluoro-4-(((5-methoxypyridin-2-yl)amino)methyl)-1H-indazol-7-yl)-1,2,5-thiadiazolidin-3-one 1,1-dioxide [Example 2]”: the IC50 in experiment [4] is 0.042 µM; in experiment [1], 0.024 µM. For the same compound, the EC50 in experiment [2] was 1.88 µM. The GI50 in experiment [3] is 0.88 µM.

Take “5-[6-fluoro-4-[[(6-methoxy-2-pyridyl)amino]methyl]-1H-indazol-7-yl]-1,1-dioxo-1,2,5-thiadiazolidin-3-one [Example 1]”: the figures for the IC50 in experiment [4] and in experiment [1] were 0.005 µM and 0.002 µM, respectively. The EC50 in experiment [2] was determined as 0.287 µM. Also, in experiment [3], the GI50 is 0.16 µM.

For the compound `COc1cc(C)nc(NCc2cc(F)c(N3CC(=O)NS3(=O)=O)c3[nH]ncc23)c1` [Example 9, 5-[6-fluoro-4-[[(4-methoxy-6-methyl-2-pyridyl)amino]methyl]-1H-indazol-7-yl]-1,1-dioxo-1,2,5-thiadiazolidin-3-one], in experiment [1], the IC50 turned out to be 0.001 µM. In addition, the EC50 in experiment [2] came to 0.091 µM. In addition, in experiment [3] (120 h), the GI50 was 0.02 µM.

For the compound “5-[6-fluoro-4-[[(4-methoxy-2-pyridyl)amino]methyl]-1H-indazol-7-yl]-1,1-dioxo-1,2,5-thiadiazolidin-3-one [Example 3]”, the IC50 came to 0.006 µM in experiment [4] and 0.009 µM in experiment [1]. The EC50 in experiment [2] turned out to be 0.764 µM. Besides, the GI50 in experiment [3] was determined as 0.35 µM.

In the case of `O=C1CN(c2c(F)cc(CNc3cc(C4CC4)ccn3)c3cn[nH]c23)S(=O)(=O)N1` [Example 4, 5-[4-[[(4-cyclopropyl-2-pyridyl)amino]methyl]-6-fluoro-1H-indazol-7-yl]-1,1-dioxo-1,2,5-thiadiazolidin-3-one], the IC50 came to 0.001 µM in experiment [4] and 0.002 µM in experiment [1]. In experiment [2], the EC50 was 3.12 µM. Moreover, the GI50 in experiment [3] (120 h) was 2.69 µM.

As for “5-[6-fluoro-4-[[(3-methyl-2-pyridyl) amino] methyl]-1H-indazol-7-yl]-1,1-dioxo-1,2,5-thiadiazolidin-3-one [Example 10]”, the IC50 in experiment [1] was 0.016 µM. Further, the EC50 in experiment [2] amounted to 14 µM. Also, in experiment [3], the GI50 amounted to 3.97 µM.

In the case of `Cc1cc(NCc2cc(F)c(N3CC(=O)NS3(=O)=O)c3[nH]ncc23)ncc1C#N` [Example 8, 6-[[6-fluoro-7-(1,1,4-trioxo-1,2,5-thiadiazolidin-2-yl)-1H-indazol-4-yl]methylamino]-4-methyl-pyridine-3-carbonitrile], in experiment [1], the IC50 is 0.067 µM. Moreover, the EC50 in experiment [2] stood at 9.21 µM. Moreover, in experiment [3] (120 h), the GI50 was more than 15 µM.
